In BindingDB's records for PubMed 20126400 (University of Oklahoma, 2010) one finds Ki data, which are given here for seven compounds.

What all share (experiment): Ray2010 Assay 74
Test [1] concerns the target D(1B) dopamine receptor (Homo sapiens, UniProt P21918). From the text:
(§1) Table S2 shows raw Ki data for the current study combined with data collected from the literature for the ten additional compounds.

The target of test [2] is Sodium-dependent serotonin transporter (Homo sapiens, UniProt P31645).
From the text: as §1

Test [3] has as its target D(1A) dopamine receptor (Homo sapiens, UniProt P21728).
From the text: as §1

The target in test [4] is Kappa-type opioid receptor (Homo sapiens, UniProt P41145).
From the text: as §1

The target of test [5] is Sodium-dependent noradrenaline transporter (Homo sapiens, UniProt P23975).
Chain of Sodium-dependent noradrenaline transporter (P23975 whole entry): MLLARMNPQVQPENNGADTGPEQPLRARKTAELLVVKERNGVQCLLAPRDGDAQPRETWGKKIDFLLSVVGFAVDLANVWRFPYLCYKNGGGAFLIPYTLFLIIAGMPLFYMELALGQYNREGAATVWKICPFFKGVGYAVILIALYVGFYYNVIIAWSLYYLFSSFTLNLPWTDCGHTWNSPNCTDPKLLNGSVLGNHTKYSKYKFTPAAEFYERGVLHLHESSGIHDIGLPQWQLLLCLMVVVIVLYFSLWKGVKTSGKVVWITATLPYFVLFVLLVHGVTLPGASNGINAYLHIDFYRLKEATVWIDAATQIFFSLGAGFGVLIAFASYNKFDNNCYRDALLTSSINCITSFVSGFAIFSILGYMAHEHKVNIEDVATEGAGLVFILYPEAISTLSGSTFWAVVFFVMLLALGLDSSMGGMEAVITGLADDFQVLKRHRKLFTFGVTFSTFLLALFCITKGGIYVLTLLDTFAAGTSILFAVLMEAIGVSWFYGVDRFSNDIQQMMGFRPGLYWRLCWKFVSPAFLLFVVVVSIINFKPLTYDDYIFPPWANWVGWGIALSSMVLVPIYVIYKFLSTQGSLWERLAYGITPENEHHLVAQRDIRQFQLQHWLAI
From the text: as §1

For test [6], the target named is T1, 5-hydroxytryptamine receptor 3A (Homo sapiens, UniProt P46098).
T1 sequence (P46098 whole entry): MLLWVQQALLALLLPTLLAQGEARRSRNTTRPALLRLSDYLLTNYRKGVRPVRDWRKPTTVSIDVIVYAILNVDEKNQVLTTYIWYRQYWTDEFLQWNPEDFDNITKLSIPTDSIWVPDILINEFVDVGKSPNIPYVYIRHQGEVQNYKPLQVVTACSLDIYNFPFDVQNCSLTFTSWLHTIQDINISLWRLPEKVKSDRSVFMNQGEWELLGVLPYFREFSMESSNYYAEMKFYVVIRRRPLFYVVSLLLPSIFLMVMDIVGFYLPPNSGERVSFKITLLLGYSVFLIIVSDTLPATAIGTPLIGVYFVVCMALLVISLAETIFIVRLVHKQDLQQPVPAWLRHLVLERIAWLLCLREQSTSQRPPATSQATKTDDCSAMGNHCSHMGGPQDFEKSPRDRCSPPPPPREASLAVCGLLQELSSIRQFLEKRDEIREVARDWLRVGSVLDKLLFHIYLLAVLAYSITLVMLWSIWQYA
From the text: as §1

The target of test [7] is Mu-type opioid receptor (Homo sapiens, UniProt P35372).
Chain of Mu-type opioid receptor (P35372 whole entry): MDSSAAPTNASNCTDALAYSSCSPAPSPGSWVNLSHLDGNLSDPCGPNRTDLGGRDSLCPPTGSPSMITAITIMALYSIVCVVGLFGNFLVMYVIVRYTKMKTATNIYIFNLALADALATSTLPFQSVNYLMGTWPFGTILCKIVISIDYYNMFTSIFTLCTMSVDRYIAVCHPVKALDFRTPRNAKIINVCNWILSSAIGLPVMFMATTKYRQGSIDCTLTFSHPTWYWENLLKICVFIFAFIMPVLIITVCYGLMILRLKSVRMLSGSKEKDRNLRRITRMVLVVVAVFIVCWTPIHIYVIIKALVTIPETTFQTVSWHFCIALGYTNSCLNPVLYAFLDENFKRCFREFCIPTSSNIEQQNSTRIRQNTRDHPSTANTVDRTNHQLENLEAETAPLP
From the text: as §1

Test [8] has as its target Histamine H2 receptor (Homo sapiens, UniProt P25021).
From the text: as §1

The target of test [9] is 5-hydroxytryptamine receptor 6 (Homo sapiens, UniProt P50406).
Chain of 5-hydroxytryptamine receptor 6 (P50406 whole entry): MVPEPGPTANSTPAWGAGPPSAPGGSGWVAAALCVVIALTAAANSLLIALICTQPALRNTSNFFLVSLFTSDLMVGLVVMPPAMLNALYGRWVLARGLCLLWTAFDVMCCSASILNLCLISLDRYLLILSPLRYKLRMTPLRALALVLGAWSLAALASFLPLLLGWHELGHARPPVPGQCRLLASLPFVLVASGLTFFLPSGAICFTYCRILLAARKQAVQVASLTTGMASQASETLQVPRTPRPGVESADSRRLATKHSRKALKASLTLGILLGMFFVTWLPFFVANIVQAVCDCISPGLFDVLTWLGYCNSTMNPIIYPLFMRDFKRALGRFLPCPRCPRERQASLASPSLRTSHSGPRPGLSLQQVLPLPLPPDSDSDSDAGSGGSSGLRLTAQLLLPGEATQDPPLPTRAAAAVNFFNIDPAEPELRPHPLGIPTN
From the text: as §1

For test [10], the target named is T2, Gamma-aminobutyric acid receptor subunit alpha-1 (Homo sapiens, UniProt P14867).
T2 sequence (P14867 whole entry): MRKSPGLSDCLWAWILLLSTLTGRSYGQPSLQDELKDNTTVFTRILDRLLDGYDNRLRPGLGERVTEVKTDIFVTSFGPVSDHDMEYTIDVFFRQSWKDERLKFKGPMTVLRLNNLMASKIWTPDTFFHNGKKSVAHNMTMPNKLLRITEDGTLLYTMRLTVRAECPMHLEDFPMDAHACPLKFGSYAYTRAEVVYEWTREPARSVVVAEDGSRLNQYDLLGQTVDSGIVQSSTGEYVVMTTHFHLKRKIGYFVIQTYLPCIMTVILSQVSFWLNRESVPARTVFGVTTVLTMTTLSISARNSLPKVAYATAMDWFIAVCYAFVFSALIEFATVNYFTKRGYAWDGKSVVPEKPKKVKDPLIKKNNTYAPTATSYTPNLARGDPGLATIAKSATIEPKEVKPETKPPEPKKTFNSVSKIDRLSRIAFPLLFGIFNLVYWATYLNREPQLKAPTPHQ
From the text: as §1

Test [11] deals with 5-hydroxytryptamine receptor 1D (Homo sapiens, UniProt P28221).
Chain of 5-hydroxytryptamine receptor 1D (P28221 whole entry): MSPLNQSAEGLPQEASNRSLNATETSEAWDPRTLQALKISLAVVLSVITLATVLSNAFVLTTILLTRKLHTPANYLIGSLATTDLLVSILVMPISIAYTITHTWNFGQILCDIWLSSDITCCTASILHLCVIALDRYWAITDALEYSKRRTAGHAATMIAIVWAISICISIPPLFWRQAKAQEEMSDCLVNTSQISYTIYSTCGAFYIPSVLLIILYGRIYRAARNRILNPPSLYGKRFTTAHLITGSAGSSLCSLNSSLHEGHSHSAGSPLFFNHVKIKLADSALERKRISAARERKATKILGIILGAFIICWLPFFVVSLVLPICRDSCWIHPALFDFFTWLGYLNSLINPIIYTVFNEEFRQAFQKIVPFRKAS
From the text: as §1

Test [12] concerns the target Sodium-dependent dopamine transporter (Homo sapiens, UniProt Q01959).
From the text: as §1

The target of test [13] is Delta-type opioid receptor (Homo sapiens, UniProt P41143).
Chain of Delta-type opioid receptor (P41143 whole entry): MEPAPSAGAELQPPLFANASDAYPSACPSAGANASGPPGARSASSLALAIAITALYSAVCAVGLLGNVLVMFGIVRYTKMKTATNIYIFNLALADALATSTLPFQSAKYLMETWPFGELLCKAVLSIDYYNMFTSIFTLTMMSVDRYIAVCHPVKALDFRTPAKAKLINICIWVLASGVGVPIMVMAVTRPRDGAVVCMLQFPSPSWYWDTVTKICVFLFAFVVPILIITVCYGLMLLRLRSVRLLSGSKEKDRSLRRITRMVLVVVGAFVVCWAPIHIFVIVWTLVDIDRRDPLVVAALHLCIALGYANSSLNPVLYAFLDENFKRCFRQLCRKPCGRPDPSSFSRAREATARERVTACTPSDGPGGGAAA
From the text: as §1

Test [14] concerns the target Glutamate receptor ionotropic, NMDA 2A (Homo sapiens, UniProt Q12879).
From the text: as §1

Test [15] has as its target Beta-1 adrenergic receptor (Homo sapiens, UniProt P08588).
From the text: as §1

The target in test [16] is Histamine H4 receptor (Homo sapiens, UniProt Q9H3N8).
Chain of Histamine H4 receptor (Q9H3N8 whole entry): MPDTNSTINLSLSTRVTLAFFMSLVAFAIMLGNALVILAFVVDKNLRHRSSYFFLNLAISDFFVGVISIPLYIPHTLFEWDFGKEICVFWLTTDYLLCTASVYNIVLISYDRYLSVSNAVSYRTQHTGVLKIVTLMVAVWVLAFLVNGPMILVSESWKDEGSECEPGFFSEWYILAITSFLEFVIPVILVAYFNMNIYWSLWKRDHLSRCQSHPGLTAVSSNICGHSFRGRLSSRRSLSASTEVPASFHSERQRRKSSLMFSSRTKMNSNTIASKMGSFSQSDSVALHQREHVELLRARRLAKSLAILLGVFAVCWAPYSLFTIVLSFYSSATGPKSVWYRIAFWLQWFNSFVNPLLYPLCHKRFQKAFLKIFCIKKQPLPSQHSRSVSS
From the text: as §1

Test [17] deals with T3, D(4) dopamine receptor (Homo sapiens, UniProt P21917).
T3 sequence (P21917 whole entry): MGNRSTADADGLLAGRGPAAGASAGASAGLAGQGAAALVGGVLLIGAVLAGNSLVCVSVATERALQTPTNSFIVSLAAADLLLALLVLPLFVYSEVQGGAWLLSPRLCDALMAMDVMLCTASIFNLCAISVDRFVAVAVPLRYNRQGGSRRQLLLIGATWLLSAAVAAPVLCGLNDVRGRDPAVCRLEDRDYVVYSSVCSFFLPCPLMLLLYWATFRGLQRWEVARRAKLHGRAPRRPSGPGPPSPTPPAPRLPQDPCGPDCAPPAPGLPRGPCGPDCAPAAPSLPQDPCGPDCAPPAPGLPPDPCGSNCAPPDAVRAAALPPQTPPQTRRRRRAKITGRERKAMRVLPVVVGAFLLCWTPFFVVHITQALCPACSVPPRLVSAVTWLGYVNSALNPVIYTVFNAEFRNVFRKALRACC
From the text: as §1

Test [18] concerns the target 5-hydroxytryptamine receptor 1E (Homo sapiens, UniProt P28566).
From the text: as §1

Test [19] concerns the target T4, Muscarinic acetylcholine receptor M2 (Homo sapiens, UniProt P08172).
T4 sequence (P08172 whole entry): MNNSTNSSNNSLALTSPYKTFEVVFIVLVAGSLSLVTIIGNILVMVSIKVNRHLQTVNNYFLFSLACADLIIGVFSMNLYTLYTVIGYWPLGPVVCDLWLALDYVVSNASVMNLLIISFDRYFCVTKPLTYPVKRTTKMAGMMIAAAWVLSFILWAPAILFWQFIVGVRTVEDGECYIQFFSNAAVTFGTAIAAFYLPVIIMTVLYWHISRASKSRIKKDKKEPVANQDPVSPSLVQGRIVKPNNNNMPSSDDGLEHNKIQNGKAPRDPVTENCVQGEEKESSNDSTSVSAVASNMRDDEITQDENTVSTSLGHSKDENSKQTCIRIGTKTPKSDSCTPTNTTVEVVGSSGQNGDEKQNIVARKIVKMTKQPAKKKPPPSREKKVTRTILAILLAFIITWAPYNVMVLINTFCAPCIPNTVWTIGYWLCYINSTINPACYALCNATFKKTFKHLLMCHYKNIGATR
From the text: as §1

Where only a bound is given, the exact number is not on record here.

Chain of D(1B) dopamine receptor (P21918 whole entry): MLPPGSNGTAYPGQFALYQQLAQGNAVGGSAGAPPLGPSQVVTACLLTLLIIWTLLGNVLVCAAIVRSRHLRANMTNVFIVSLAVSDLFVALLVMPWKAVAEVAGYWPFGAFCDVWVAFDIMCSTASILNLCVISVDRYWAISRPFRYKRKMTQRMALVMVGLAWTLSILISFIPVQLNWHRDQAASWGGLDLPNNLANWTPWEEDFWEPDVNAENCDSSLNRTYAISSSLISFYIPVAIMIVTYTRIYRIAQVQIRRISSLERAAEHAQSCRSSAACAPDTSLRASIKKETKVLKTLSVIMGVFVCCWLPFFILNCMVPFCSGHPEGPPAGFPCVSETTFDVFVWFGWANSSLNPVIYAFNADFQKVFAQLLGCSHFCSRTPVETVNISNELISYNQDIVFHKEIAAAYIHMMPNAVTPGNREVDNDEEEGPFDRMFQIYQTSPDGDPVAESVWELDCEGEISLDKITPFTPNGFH
Chain of D(1A) dopamine receptor (P21728 whole entry): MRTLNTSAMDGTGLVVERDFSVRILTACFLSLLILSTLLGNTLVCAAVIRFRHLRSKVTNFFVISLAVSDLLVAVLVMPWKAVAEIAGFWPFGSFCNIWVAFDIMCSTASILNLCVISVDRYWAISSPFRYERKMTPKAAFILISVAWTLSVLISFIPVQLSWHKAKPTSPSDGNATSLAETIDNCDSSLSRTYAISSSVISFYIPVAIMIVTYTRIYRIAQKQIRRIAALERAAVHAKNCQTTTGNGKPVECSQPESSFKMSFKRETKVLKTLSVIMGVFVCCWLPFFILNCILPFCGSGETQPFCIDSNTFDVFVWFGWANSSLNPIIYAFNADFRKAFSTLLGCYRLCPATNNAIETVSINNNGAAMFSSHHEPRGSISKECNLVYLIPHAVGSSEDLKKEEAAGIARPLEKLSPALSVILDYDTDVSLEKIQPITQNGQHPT
Chain of Glutamate receptor ionotropic, NMDA 2A (Q12879 whole entry): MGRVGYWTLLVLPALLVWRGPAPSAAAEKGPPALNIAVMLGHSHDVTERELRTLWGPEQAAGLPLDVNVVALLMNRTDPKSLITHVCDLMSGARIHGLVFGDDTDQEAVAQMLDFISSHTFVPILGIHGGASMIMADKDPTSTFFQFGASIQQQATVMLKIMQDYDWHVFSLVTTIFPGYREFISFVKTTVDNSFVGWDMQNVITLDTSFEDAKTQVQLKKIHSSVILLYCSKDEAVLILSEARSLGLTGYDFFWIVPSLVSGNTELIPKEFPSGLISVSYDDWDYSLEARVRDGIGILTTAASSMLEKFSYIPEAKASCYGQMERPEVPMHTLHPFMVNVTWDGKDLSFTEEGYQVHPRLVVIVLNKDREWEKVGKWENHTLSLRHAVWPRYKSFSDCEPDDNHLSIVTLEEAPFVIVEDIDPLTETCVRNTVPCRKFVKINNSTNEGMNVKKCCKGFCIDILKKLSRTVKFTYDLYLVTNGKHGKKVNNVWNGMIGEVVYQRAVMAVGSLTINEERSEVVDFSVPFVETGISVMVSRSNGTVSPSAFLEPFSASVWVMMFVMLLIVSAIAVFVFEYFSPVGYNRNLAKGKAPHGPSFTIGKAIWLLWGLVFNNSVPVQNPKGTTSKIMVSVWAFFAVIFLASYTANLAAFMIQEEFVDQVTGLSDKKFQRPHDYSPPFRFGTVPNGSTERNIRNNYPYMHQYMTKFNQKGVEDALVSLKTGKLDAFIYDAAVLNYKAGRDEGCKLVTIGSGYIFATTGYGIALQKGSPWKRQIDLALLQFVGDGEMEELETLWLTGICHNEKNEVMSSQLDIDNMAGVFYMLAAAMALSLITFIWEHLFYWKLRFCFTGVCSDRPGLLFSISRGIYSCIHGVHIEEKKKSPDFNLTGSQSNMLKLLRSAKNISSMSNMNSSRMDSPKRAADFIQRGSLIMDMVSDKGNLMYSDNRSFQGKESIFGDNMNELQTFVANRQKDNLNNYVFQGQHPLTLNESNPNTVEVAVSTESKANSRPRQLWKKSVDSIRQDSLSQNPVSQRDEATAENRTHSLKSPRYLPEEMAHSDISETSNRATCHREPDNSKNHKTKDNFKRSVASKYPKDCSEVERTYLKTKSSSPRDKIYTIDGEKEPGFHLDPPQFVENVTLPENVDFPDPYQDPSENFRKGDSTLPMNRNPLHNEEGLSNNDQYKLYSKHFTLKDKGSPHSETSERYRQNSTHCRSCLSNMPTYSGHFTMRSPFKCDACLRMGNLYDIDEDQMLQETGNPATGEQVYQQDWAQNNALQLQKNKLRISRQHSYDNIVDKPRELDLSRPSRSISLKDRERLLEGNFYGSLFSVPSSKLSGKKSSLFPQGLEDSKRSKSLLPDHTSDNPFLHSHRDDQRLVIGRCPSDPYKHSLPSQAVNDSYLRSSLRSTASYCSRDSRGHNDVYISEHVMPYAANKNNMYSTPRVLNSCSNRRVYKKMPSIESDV

Consider `COc1cc(CCN)cc(OC)c1OC` [3,4,5-trimethoxyphenylethylamine], for which the Ki in test [1], in [2], in test [3], in test [4], in [5] and in [6] was greater than 10 µM in each case. Also, the Ki in [7], in [8], in [9], in test [10], in [11] and in test [12] was greater than 10 µM each time. Further, the Ki in test [13] is greater than 10 µM; in [14], greater than 10 µM; in test [15] it was greater than 10 µM; in test [16], greater than 10 µM; in [17], greater than 10 µM; in test [18] it was 5.2 µM. Further, the Ki in test [19] was greater than 10 µM.
Regarding `COc1cc(CC(C)N)cc(OC)c1OC` (stereo not drawn), the Ki in [1], in [2], in [3], in [4], in [5] and in test [6] was greater than 10 µM throughout. Further, the Ki in test [7] is greater than 10 µM; in [8], greater than 10 µM; in [9], greater than 10 µM; in test [10], greater than 10 µM; in test [11], 3.03 µM; in test [12], greater than 10 µM. Further, the Ki in test [13] was greater than 10 µM; in test [14], greater than 10 µM; in [15], greater than 10 µM; in test [16], greater than 10 µM; in test [17], greater than 10 µM; in test [18], 3.37 µM. Moreover, in [19], the Ki is greater than 10 µM.
Consider `COc1cc(CC(C)N)c(OC)cc1C` (stereo not drawn) [(+/-)2-(2,5-Dimethoxy-4-methyl-phenyl)-1-methyl-ethylamine], for which the Ki in test [1], in [2], in test [3], in [4], in test [5] and in [6] was greater than 10 µM each time. In addition, the Ki was greater than 10 µM in test [7]; greater than 10 µM in test [8]; 8.15 µM in test [9]; greater than 10 µM in test [10]; 0.209 µM in [11]; greater than 10 µM in test [12]. Besides, the Ki is greater than 10 µM in [13]; greater than 10 µM in [14]; greater than 10 µM in [15]; greater than 10 µM in test [16]; greater than 10 µM in test [17]; 3.54 µM in test [18]. In addition, the Ki in test [19] was greater than 10 µM.
Take `CCc1cc(OC)c(CCN)cc1OC` [2-(2,5-dimethoxy-4-ethylphenyl)ethylamine]: the Ki in test [1], in [2], in [3], in test [4], in [5] and in test [6] was greater than 10 µM each time. The Ki in test [7] was greater than 10 µM; in test [8], greater than 10 µM; in [9] it was 2.97 µM; in test [10], greater than 10 µM; in test [11], 0.0732 µM; in test [12], greater than 10 µM. For the same compound, the Ki in [13] was greater than 10 µM; in [14], greater than 10 µM; in test [15], greater than 10 µM; in test [16], greater than 10 µM; in test [17] it was greater than 10 µM; in [18], 0.626 µM. In test [19], this compound had a Ki greater than 10 µM.
On to `CC(C)N(CCc1c[nH]c2ccccc12)C(C)C` [dipt], for which the Ki in [1] is greater than 10 µM; in [2] it was 1.26 µM; in test [3], greater than 10 µM; in test [4] it was greater than 10 µM; in test [5], greater than 10 µM; in test [6], greater than 10 µM. For the same compound, the Ki in test [7] was greater than 10 µM; in test [8], greater than 10 µM; in test [9], greater than 10 µM; in test [10] it was greater than 10 µM; in [11], 3.74 µM; in [12], greater than 10 µM. Moreover, the Ki in test [13], in test [14], in [15], in test [16], in test [17] and in [18] was greater than 10 µM in each case. The compound further had a Ki in [19] greater than 10 µM.
Regarding `COc1ccc2[nH]cc(CCN(C)C(C)C)c2c1` [5-meo-mipt], the Ki is greater than 10 µM in test [1]; 6.41 µM in [2]; greater than 10 µM in test [3]; greater than 10 µM in test [4]; greater than 10 µM in test [5]; greater than 10 µM in test [6]. Further, the Ki is greater than 10 µM in [7]; greater than 10 µM in [8]; 0.13 µM in test [9]; greater than 10 µM in [10]; 0.0225 µM in [11]; greater than 10 µM in [12]. Besides, the Ki is greater than 10 µM in [13]; greater than 10 µM in test [14]; greater than 10 µM in test [15]; greater than 10 µM in [16]; 6.33 µM in test [17]; 3.5 µM in test [18]. In addition, the Ki in test [19] was greater than 10 µM.
Turning to “CAS_82830-44-2::(2R)-1-(4-iodo-2,5-dimethoxyphenyl)propan-2-amine::DOI,(-)::US20250270173, Compound DOI”, the Ki in test [1] was greater than 10 µM; in test [2], 0.685 µM; in test [3] it was 9.69 µM; in test [4], greater than 10 µM; in [5], greater than 10 µM; in [6], greater than 10 µM. In addition, the Ki is greater than 10 µM in test [7]; greater than 10 µM in [8]; 2.11 µM in test [9]; greater than 10 µM in test [10]; 0.458 µM in test [11]; greater than 10 µM in test [12]. Also, the Ki in test [13] was greater than 10 µM; in test [14], greater than 10 µM; in test [15], 0.591 µM; in [16], greater than 10 µM; in test [17] it was greater than 10 µM; in [18] it was 1.01 µM. Also, the Ki in test [19] was 1.99 µM.

A word on the Ki: it is a dissociation constant, usually derived from enzyme kinetics or from competition with a known ligand. Read a low Ki as a stronger hold on the target.
